Experimental data published in patent publication US20050058707A1, “Uniform delivery of topiramate over prolonged period of time with enhanced dispersion formulation” (priority 2003, published 2005).
≈ marks a conversion by molar mass, not a printed value. Read-outs that look alike come from different tables or passages of the source.

What was measured:
[1] = Aqueous solubility of topiramate; assay type: physicochemical; settings: 37 °C, thermodynamic from solid
Method: Aqueous solubility is determined by adding the therapeutic agent to stirred or agitated water maintained in a constant temperature bath at a temperature of 37 degrees centigrade until no more agent dissolves. The resulting solution saturated with active agent is then filtered, typically under pressure through a 0.8-micron Millipore filter, and the concentration in solution is measured by any appropriate analytical method including gravimetric, ultraviolet spectrophometry, chromatography, and the like.

[2] = Physicians' Desk Reference; cited from earlier work

solubility ([1]; de-ionized water, read-out: Solubility of neat topiramate measured in de-ionized water): 12 mg/mL (≈ 35.4 mM)
solubility ([1]; water, read-out: solubility): 9.8 to 13 mg/mL (≈ 28.9 to 38.3 mM)
SMILES: CC1(C)O[C@@H]2[C@@H](CO[C@@]3(COS(N)(=O)=O)OC(C)(C)O[C@@H]23)O1 [Topiramate, topiramate]
solubility in water [2]: about 9.8 mg/ml
